Data reported in ChEMBL document CHEMBL1201862, “PubChem BioAssay data set” (2004).
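Tested at 5 concentrations; 48 h exposure; 96-well plates; endpoints linearly interpolated, else capped at highest concentration. Here, GI50 denotes the concentration required for 50% inhibition of growth.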 Calls of active or inactive are those of the source. Rule as the data show it: active = GI50 up to about 1.1 µM and inactive = higher.

Experiments:
Assay in all cases: inhibition of tumour cell growth, NCI panel, 48 h
[1] = test system: BT-549
[2] = test system: HT-29
[3] = test system: OVCAR-3
[4] = test system: U-251
[5] = test system: SN12C
[6] = test system: UACC-257
[7] = test system: HCT-116
[8] = test system: NCI-H460
[9] = test system: SK-MEL-28
[10] = test system: KM12
[11] = test system: TK-10
[12] = test system: SF-539
[13] = test system: SNB-19
[14] = test system: ACHN
[15] = test system: SF-268
[16] = test system: IGROV-1
[17] = test system: Malme-3M
[18] = test system: SK-OV-3
[19] = test system: HCC 2998
[20] = test system: RXF 393
[21] = test system: MDA-MB-231
[22] = test system: NCI-H226
[23] = test system: T47D
[24] = test system: UACC-62
[25] = test system: HCT-15
[26] = test system: OVCAR-4
[27] = test system: MOLT-4
[28] = test system: Hs-578T
[29] = test system: MDA-N
[30] = test system: SNB-75
[31] = test system: OVCAR-8
[32] = test system: NCI-H23
[33] = test system: UO-31
[34] = test system: SF-295
[35] = test system: K562
[36] = test system: HL-60
[37] = test system: DU-145
[38] = test system: CAKI-1
[39] = test system: CCRF-CEM
[40] = test system: LOX IMVI
[41] = test system: SK-MEL-2
[42] = test system: A498
[43] = test system: MCF7
[44] = test system: 786-0
[45] = test system: SR
[46] = test system: RPMI-8226
[47] = test system: EKVX
[48] = test system: HOP-62
[49] = test system: OVCAR-5
[50] = test system: NCI/ADR-RES
[51] = test system: HOP-92
[52] = test system: M14
[53] = test system: MDA-MB-435
[54] = test system: COLO 205
[55] = test system: PC-3
[56] = test system: SW-620
[57] = test system: A549
[58] = test system: SK-MEL-5
[59] = test system: NCI-H522

CC(=O)c1cccc(NC(=O)C(=O)C(c2cnc3ccc([N+](=O)[O-])cc3n2)[N+](=O)[O-])c1 (centres undefined)
GI50 [1]: 53 µM (inactive)
GI50 [2]: > 100 µM (inactive)
GI50 [3]: > 100 µM (inactive)
GI50 [4]: > 100 µM (inactive)
GI50 [5]: > 100 µM (inactive)
GI50 [6]: > 100 µM (inactive)
GI50 [7]: 58.3 µM (inactive)
GI50 [8]: > 100 µM (inactive)
GI50 [9]: > 100 µM (inactive)
GI50 [10]: 54.1 µM (inactive)
GI50 [11]: > 100 µM (inactive)
GI50 [12]: > 100 µM (inactive)
GI50 [13]: > 100 µM (inactive)
GI50 [14]: > 100 µM (inactive)
GI50 [15]: > 100 µM (inactive)
GI50 [16]: > 100 µM (inactive)
GI50 [17]: > 100 µM (inactive)
GI50 [18]: > 100 µM (inactive)
GI50 [19]: 69.8 µM (inactive)
GI50 [20]: 96.6 µM (inactive)
GI50 [21]: > 100 µM (inactive)
GI50 [22]: > 100 µM (inactive)
GI50 [23]: > 100 µM (inactive)
GI50 [24]: > 100 µM (inactive)
GI50 [25]: > 100 µM
GI50 [26]: > 100 µM (inactive)
GI50 [27]: 36.7 µM (inactive)
GI50 [28]: > 100 µM (inactive)
GI50 [29]: > 100 µM (inactive)
GI50 [30]: > 100 µM (inactive)
GI50 [31]: > 100 µM (inactive)
GI50 [32]: > 100 µM (inactive)
GI50 [33]: 38.5 µM (inactive)
GI50 [34]: 66.7 µM (inactive)
GI50 [35]: > 100 µM (inactive)
GI50 [36]: 37.9 µM (inactive)
GI50 [37]: > 100 µM (inactive)
GI50 [38]: > 100 µM (inactive)
GI50 [39]: 36.4 µM (inactive)
GI50 [40]: > 100 µM (inactive)
GI50 [41]: > 100 µM (inactive)
GI50 [42]: > 100 µM (inactive)
GI50 [43]: > 100 µM (inactive)
GI50 [44]: > 100 µM (inactive)
GI50 [45]: 52.1 µM (inactive)
GI50 [46]: > 100 µM (inactive)
GI50 [47]: > 100 µM (inactive)
GI50 [48]: > 100 µM (inactive)
GI50 [49]: > 100 µM (inactive)
GI50 [50]: 95.5 µM (inactive)
GI50 [51]: > 100 µM (inactive)
GI50 [52]: 69 µM (inactive)
GI50 [53]: > 100 µM (inactive)
GI50 [54]: 41 µM (inactive)
GI50 [55]: 42.9 µM (inactive)
GI50 [56]: 52.2 µM (inactive)

Cc1c(CCOC=O)c(=O)[nH]c2nncn12
GI50 [1]: > 100 µM (inactive)
GI50 [2]: > 100 µM (inactive)
GI50 [3]: > 100 µM (inactive)
GI50 [4]: > 100 µM (inactive)
GI50 [5]: > 100 µM (inactive)
GI50 [6]: > 100 µM (inactive)
GI50 [7]: > 100 µM (inactive)
GI50 [8]: > 100 µM (inactive)
GI50 [9]: > 100 µM (inactive)
GI50 [57]: > 100 µM (inactive)
GI50 [10]: > 100 µM (inactive)
GI50 [11]: > 100 µM (inactive)
GI50 [58]: > 100 µM (inactive)
GI50 [12]: > 100 µM (inactive)
GI50 [13]: > 100 µM (inactive)
GI50 [14]: > 100 µM (inactive)
GI50 [15]: > 100 µM (inactive)
GI50 [16]: > 100 µM (inactive)
GI50 [17]: > 100 µM (inactive)
GI50 [18]: > 100 µM (inactive)
GI50 [19]: > 100 µM (inactive)
GI50 [20]: > 100 µM (inactive)
GI50 [21]: > 100 µM (inactive)
GI50 [22]: > 100 µM (inactive)
GI50 [23]: > 100 µM (inactive)
GI50 [24]: > 100 µM (inactive)
GI50 [25]: > 100 µM
GI50 [26]: > 100 µM (inactive)
GI50 [27]: > 100 µM (inactive)
GI50 [28]: > 100 µM (inactive)
GI50 [29]: > 100 µM (inactive)
GI50 [30]: > 100 µM (inactive)
GI50 [31]: > 100 µM (inactive)
GI50 [32]: > 100 µM (inactive)
GI50 [33]: > 100 µM (inactive)
GI50 [34]: > 100 µM (inactive)
GI50 [59]: > 100 µM (inactive)
GI50 [35]: > 100 µM (inactive)
GI50 [36]: > 100 µM (inactive)
GI50 [37]: > 100 µM (inactive)
GI50 [38]: > 10 µM (inactive)
GI50 [39]: > 100 µM (inactive)
GI50 [40]: > 100 µM (inactive)
GI50 [42]: > 100 µM (inactive)
GI50 [43]: > 100 µM (inactive)
GI50 [44]: > 100 µM (inactive)
GI50 [45]: > 100 µM (inactive)
GI50 [46]: > 100 µM (inactive)
GI50 [47]: > 100 µM (inactive)
GI50 [48]: > 100 µM (inactive)
GI50 [49]: > 100 µM (inactive)
GI50 [50]: > 100 µM (inactive)
GI50 [51]: > 100 µM (inactive)
GI50 [52]: > 100 µM (inactive)
GI50 [53]: > 100 µM (inactive)
GI50 [54]: > 100 µM (inactive)
GI50 [55]: > 100 µM (inactive)
GI50 [56]: > 100 µM (inactive)
